From paper PMC2748165 (Biochemical pharmacology, 2009)

How the values were obtained:
[1] = dual perfusion of human placental lobule; cited from earlier work
P-gp [2] = biological target: T1, P-gp (Homo sapiens, UniProt P08183); assay: in vitro
P-gp [3] = biological target: T1, P-gp; type: biochemical
[4] = system: P-gp of CEM leukemia cells; conditions: cited from earlier work
P-gp [5] = biological target: T1, P-gp; assay: Inhibition of [3H]-paclitaxel uptake by placental inside-out vesicles
[6] = placental IOVs 0.05 mg/mL, 20–500 nM [3H] paclitaxel, n = 10, mean ± SEM

T1 sequence (P08183 whole entry): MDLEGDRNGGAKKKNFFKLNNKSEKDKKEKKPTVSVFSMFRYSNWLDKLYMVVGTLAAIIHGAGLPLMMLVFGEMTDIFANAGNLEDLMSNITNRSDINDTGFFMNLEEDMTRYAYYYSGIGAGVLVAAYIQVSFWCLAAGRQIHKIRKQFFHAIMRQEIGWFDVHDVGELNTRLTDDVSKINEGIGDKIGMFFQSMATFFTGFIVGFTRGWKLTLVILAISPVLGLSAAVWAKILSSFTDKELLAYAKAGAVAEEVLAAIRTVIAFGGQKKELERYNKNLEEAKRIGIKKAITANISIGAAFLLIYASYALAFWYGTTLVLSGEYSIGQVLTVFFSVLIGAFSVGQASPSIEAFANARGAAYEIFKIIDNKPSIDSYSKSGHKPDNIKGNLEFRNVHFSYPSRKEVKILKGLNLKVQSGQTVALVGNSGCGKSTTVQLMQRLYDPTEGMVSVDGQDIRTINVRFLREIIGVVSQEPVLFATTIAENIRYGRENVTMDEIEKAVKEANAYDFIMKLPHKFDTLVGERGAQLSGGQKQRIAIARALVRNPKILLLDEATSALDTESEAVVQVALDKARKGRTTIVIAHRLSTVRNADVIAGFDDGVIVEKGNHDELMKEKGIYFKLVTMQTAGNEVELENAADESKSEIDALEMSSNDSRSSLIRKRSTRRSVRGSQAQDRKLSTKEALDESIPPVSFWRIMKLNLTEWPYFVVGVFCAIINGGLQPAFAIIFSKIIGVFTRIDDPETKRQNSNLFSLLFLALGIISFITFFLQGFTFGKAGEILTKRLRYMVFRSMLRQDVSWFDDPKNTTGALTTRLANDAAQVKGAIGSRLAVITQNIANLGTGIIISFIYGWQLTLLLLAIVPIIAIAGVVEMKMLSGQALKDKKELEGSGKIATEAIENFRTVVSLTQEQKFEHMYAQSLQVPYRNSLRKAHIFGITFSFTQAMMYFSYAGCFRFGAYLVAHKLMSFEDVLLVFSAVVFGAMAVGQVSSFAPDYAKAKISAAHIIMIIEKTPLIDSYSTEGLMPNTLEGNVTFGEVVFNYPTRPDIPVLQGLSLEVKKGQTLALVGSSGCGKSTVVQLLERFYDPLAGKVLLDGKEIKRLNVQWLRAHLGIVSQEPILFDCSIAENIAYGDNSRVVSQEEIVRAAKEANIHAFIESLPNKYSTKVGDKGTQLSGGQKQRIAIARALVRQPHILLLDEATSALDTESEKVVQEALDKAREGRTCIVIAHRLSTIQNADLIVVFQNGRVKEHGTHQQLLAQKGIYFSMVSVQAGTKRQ

For CCC(=O)C(CC(C)N(C)C)(c1ccccc1)c1ccccc1 (stereo not drawn) [methadone], the “rate of transfer from the maternal to fetal circuit” value [1] is given as 29.4 ± 4.6% and the inhibition at 1 min (P-gp [2]) is given as 60%.
With CC(=O)O[C@H]1C(=O)[C@@]2(C)[C@H]([C@H](OC(=O)c3ccccc3)[C@]3(O)C[C@H](OC(=O)[C@H](O)[C@@H](NC(=O)c4ccccc4)c4ccccc4)C(C)=C1C3(C)C)[C@]1(OC(C)=O)CO[C@@H]1C[C@@H]2O [paclitaxel] the “ATP dependent uptake of [3H]-paclitaxel into IOVs, mean” value (P-gp [3]; 200 individual placentas, mean) was 23 pmol*mg protein^−1min^−1, the “ATP dependent uptake of [3H]-paclitaxel into IOVs, range” value (P-gp [3]; 200 individual placentas, range) was 1–140 pmol*mg protein^−1min^−1 and the “Vmax of ATP-dependent [3H] paclitaxel uptake” value (P-gp [3]; [6]) was 20 ± 3 pmol*mg protein^−1min^−1. The “apparent Kt of ATP-dependent [3H] paclitaxel uptake” value (P-gp [3]; [6]) was 66 ± 38 nM, the “apparent Kt of paclitaxel transport, CEM cells overexpressing P-gp” value ([4]; cells passaged in vinblastine, multidrug resistant, overexpressing P-gp) was 63 ± 46 nM and the “Kt of paclitaxel transport, parental CEM cells” value ([4]; parental cells) was 144 ± 56 nM.
For COc1ccc(CCN(C)CCCC(C#N)(c2ccc(OC)c(OC)c2)C(C)C)cc1OC (stereo not drawn) [verapamil], the inhibition at 1 min, 2 mM (P-gp [5]) was 99 ± 9%.
